Results reported in US20050013781A1, “Sunscreen composition” (Playtex Products, Inc., priority 2003, published 2005).

Tests used:
Format in all cases: physicochemical
[1] = DOE (central composite design) photostability of model oil phases: retained absorbance after 15 MED; conditions: response surface analysis of DOE 1-3
Method: In order to determine the impact of the concentration of avobenzone, from 0.04842 M to 0.0968 M (Factor 1) and different molar ratios of 1,2-octanediol (caprylyl glycol) to avobenzone, from 0 to 10 (Factor 2), on the photostability of avobenzone in the different sunscreen compositions, numerous studies were conducted. Three designs of experiments that represent central composite designs (CCDs) and D.O.E. Fusion 7.2.2 software were employed.
The CCD type of design was used to determine the effect of two factors: concentration of Avobenzone and the molar ratio 1,2-octanediol/avobenzone on the photostability of avobenzone in the different sunscreen compositions. Two responses were measured: the retained absorbance (%) of a sunscreen composition at 370 nm (UVA) and the same measurement at 310 nm (UVB) after irradiation dose of 15 MED.
The same order of experiments was run in the different set-ups. As a result, two categorical factors were added: Oxybenzone (absent or present at a predetermined constant level) and Octocrylene (absent or present at a predetermined constant level). Table 16 presents the three set-ups as well as the numbers of the formulation tables and response tables.
Response surface equalization were fitted to both responses (retained absorbance at 370 nm and retained absorbance at 310 nm, both after an irradiation dose of 15 MED). The significant factors were selected.

[2] = Dielectric constant of glycols and derivatives; conditions: for Dielectric Constant, 23° C.: neat glycol/derivative
Source text: Determining the polarity of a mixture or an emulsion can be performed in various ways. For example, determining a polarity can include measuring a property that is a function of polarity, such as a dielectric constant. Measurement of a dielectric constant of a liquid can be performed by various sensors, such as immersion probes, flow-through probes, and cup-type probes, attached to various meters, such as those available from the Brookhaven Instruments Corporation of Holtsville, N.Y. (e.g., model BI-870) and the Scientifica Company of Princeton, N.J. (e.g. models 850 and 870). For consistency of comparison, preferably all measurements for a particular filter system are performed at substantially the same sample temperature, e.g., by use of a water bath. Generally, the measured dielectric constant of a substance will increase at lower temperatures and decrease at higher temperatures.
Dielectric Constants of the following glycols and their derivatives have been measured (see Table 1).

[3] = Photostability on VITRO-SKIN: retained absorbance and critical wavelength before and after irradiation
Method: Referring to Table 7 above, the compositions were applied on Vitro-Skin (0.6 mg/cm2) and irradiated. The irradiation dose was 5 MEDs repeated 4 times (=20 MEDs total). Retained Absorbance at 370 nm (UVA photostability, FIG. 1), 310 nm (UVB photostability, FIG. 2) and critical wavelength (Table 8, FIG. 3) were determined for each composition before and after each irradiation dose in order to determine their photostability.
The resulting sunscreen oil phases were tested for photostability by measuring absorbance on a Labsphere UV-1000S Ultraviolet Transmittance Analyzer before and after irradiation with a Solar Light Company model 16S solar simulator (equipped with a WG 320 filter to transmit radiation greater than 290 nm) in 5 MED (105 mJ/cm^2) increments up to 20 MED cumulative dose. Output was monitored by a PMA 2105 UV-B DCS Detector (biologically weighted) and controlled by a PMA 2100 Automatic Dose Controller (Solar Light Co.).
A synthetic skin substrate was used for testing the sunscreen compositions (VITRO-SKIN substrate by IMS, Inc. of Milford, Conn.). To prepare the substrate, a 300 g solution of 44 g of glycerin and 256 g of deionized water was added to an IMS hydrating chamber, and a sheet of VITRO-SKIN was placed in the hydrating chamber for approx. 16 hours. Several 6.5 cm squares were cut from the hydrated VITRO-SKIN and used for absorbance measurements.
To prepare slides for testing, sunscreen composition is drawn or placed into a pipette. The test composition is uniformly applied to VITRO-SKIN square (0.6 mg/cm^2). This application dose of the oil phase, 0.6 mg/cm^2, corresponds to the application dose of 2 mg/cm^2 of sunscreen formulation (typically the concentration of the oil phase in the sunscreen formulation is about 30%). The VITRO-SKIN square was then placed on a foam block, and the test material was spread by finger (covered with a latex glove or finger cot), first in a circular motion, then by a side-to-side motion during which the VITRO-SKIN is deformed by the pressure. The square was then mounted in a slide holder and allowed to dry for about 15 to 20 minutes.
To test photostability, a slide was positioned on the UV transmittance analyzer using registration marks, and a scan of 1 sq. cm spot on the slide was performed. The slide was then transferred to a holder placed adjacent to the solar simulator and, using a calipers, was positioned such that the beam of UV radiation exiting the solar simulator illuminated the same 1 cm spot on the slide. The following software settings were used: UV-B—290-320 nm; UV-A—320-400 nm; SPF—290-400 nm; Spectral Irradiance; Noon, July 3, Albuquerque, N.Mex.; SPF Spectral Irradiance and Erythermal Effectiveness settings as set by manufacturer. Following an exposure of 5 MED, the slide was again placed in position on the UV transmittance analyzer, and a scan of the exposed spot was performed. The procedure was repeated on the same 1 cm spot on the slide until the desired total radiation dosage was achieved.
The above compositions were applied on Vitro-Skin (0.6 mg/cm2) and irradiated. The irradiation dose was 5 MEDs repeated 4 times (=20 MEDs total). Retained Absorbance at 370 nm (Table 11 and FIG. 4), 310 nm (Table 12) and critical wavelength (Table 13 and FIG. 5) were determined for each composition before and after each irradiation dose in order to determine their photostability. The methodology is described above in more detail in Example 3.

Molecule	effect on retained absorbance at 310 nm after 15 MED (in words) [1]	effect on retained absorbance at 370 nm after 15 MED (in words) [1]	Dielectric Constant, 23° C. [2]	photostability of UVB sunscreens at 310 nm (in words) [3]	photostability of avobenzone at 370 nm (in words) [3]	other results
CCCCC(CC)COC(=O)C(C#N)=C(c1ccccc1)c1ccccc1 (centres unmarked) [Octocrylene, 2-ethylhexyl-2-cyano-3,3 diphenylacrylate]	gives mild a gain in absorbency	helps the absorbance retention 370 nm, but not as significant as in the case of oxybenzone				
CCCCCCC(O)CO (centres unmarked) [1,2-Octanediol]	significantly improves the photostability of sunscreens at 310 nm	significantly improves the photostability				Dielectric Constant ([2]; measured at 30° C., solid at room temperature (23 C.)): 10.61; photostabilization of avobenzone (in words) [3]: most effectively stabilizes avobenzone
CCCCOCCOCCO [Diethylene Glycol Monobutyl Ether]			10.59			
CCC(=O)OCCCCO [Butylene Glycol Monopropionate]			11.72			
CCCC(O)CO (centres unmarked) [Pentylene Glycol, 1,2-pentanediol]			18.2	can improve the photostability of UVB sunscreens at 310 nm	without the significant improvement of the photostability of avobenzone at 370 nm	
Polyethylene Glycol-7 Methyl Ether			13.1			
CCOCCOCCO [Ethoxydiglycol, Diethylene glycol monoethyl ether]			13.69	can improve the photostability of UVB sunscreens at 310 nm	without the significant improvement of the photostability of avobenzone at 370 nm	
COc1ccc(C(=O)c2ccccc2)c(O)c1 [Oxybenzone, oxybenzone]	helps retention at 310 nm	gives the highest boost in retain absorbance at 370 nm and 15 MED exposure				
CCCCC(O)CO (centres unmarked) [1,2-Hexanediol]			15.1	can improve the photostability of UVB sunscreens at 310 nm	without the significant improvement of the photostability of avobenzone at 370 nm	
